Results on 2 molecules are retold here after ChEMBL document CHEMBL3046756, “Synthesis, anti-inflammatory, and structure antioxidant activity relationship of novel 4-quinazoline” (Med Chem Res, 2013).

The test system of data set [1] is Mus musculus. Put plainly: Toxicity in albino Mus musculus (mouse) assessed as change in skin color at 150 to 900 mg/kg, ip measured within 24 hr. In kind it is organism-based. On the set-up: dose 150-900 mg/kg, route intraperitoneal. Particulars: in vivo.
Data set [2] relates to Mus musculus. Kind of data set: Toxicity in albino Mus musculus (mouse) assessed as tremor in hind limbs at 150 to 900 mg/kg, ip measured within 24 hr. In kind it is organism-based, Hindlimb. Also noted: dose 150-900 mg/kg, route intraperitoneal. Particulars: in vivo.
Data set [3] concerns Mus musculus. Kind of data set: Toxicity in albino Mus musculus (mouse) assessed as rapid respiration at 150 to 900 mg/kg, ip measured within 1 to 2 hr. In kind it is organism-based. Also noted: route intraperitoneal. Particulars: in vivo.
Data set [4] has as its system Mus musculus. Kind of data set: Toxicity in albino Mus musculus (mouse) assessed as change in toes color at 150 to 900 mg/kg, ip measured within 24 hr. Also noted: dose 150-900 mg/kg, route intraperitoneal. The conditions noted are these: in vivo. The data set is classed as organism-based.
Data set [5] relates to Mus musculus. Kind of data set: Toxicity in albino Mus musculus (mouse) assessed as change in skin color at 650 to 1800 mg/kg, ip measured within 24 hr. In kind it is organism-based. Also noted: dose 650-1800 mg/kg, route intraperitoneal. The conditions noted are these: in vivo.
For data set [6], the system named is Mus musculus. Kind of data set: Toxicity in albino Mus musculus (mouse) assessed as increase in heart rate at 650 to 1800 mg/kg, ip measured within 1 to 2 hr. Particulars: in vivo. Also noted: route intraperitoneal. In kind it is organism-based.
Data set [7] in a line: Antioxidant activity assessed as Fe2+ chelating activity at 1.25 mg/ml after 90 min by spectrophotometric analysis. The data set is classed as functional.

As for `O=c1c2ccccc2nc2n1NC(c1ccc(O)c(O)c1)C2` (configuration not stated), the Activity result in data set [1], in data set [2], in data set [3] and in data set [4] was “Toxic” throughout.
For the molecule `COC(=O)c1ccccc1NC(=O)/C=C/c1ccc(O)c(O)c1`, the Activity result was “Toxic” in data set [5], “Toxic” in data set [6] and 30% in data set [7].
